Series [1] has as its system stinging and burning sensations on the eye. Kind of series: Adjuncts to reduce stinging of trialkyl phosphine oxide eye drops. The class given is in vivo, human. Here is the method:
I conclude that hydrocarbon polyols are useful adjuncts for preparing a therapeutic formulation of a trialkyl phosphine oxide eye drop solution.
(§1) A 0.2% (2.0 mg/ml) disec-butyl-n-heptyl-phosphine oxide eye drop solution was prepared by adding the compound to an isotonic solution of sodium chloride, 0.65% in deionized water, monobasic potassium phosphate/sodium hydroxide buffer, preserved with disodium EDTA and benzalkonium chloride. The liquid was individually aliquoted into a ¼ oz. bottle with a Yorker spout (E.D. Luce Packaging) suitable for droplet delivery. This solution was then applied to the closed eyes of three volunteers, with two to three drops of the solution applied to each eye. The subjects complained of stinging and burning sensations on the eye surface, lasting for about 2 min. A series of six solutions were then prepared in which six different hydrocarbon polyols were added to the parent 0.2% solution. The individual additions were 1.5% sucrose, 1.5% fructose, 1.5% dextrose, 1.5% lactose, 1.5% inositol, or 0.5% carboxymethylcellulose. […] There was some tearing, but no evidence of increased eye redness from the hydrocarbon polyols and subjective complaints of discomfort were minimal.

The test system is the same in series [2]. Described as above. The format is in vivo, human. The source holds these as a separate data set.
Another series relates to eye disorders. Kind of series: Estimate of ideal therapeutic eye drop concentration to relieve eye disorders. The format is in vivo, human. As to conditions: for Eye Therapy: estimate of ideal therapeutic concentration applied as eye drops to relieve eye disorders. Here is the method: (§2) The therapeutic concentrations of the preferred analogs are in the range of 10 to 80 μg/ml […], but concentrations as low as 0.1 μg/ml may elicit effects in sensitive individuals.
The potency of certain specific trialkyl phosphine oxides, e.g. isopropyl, sec-butyl, n-octyl-phosphine oxide, in relieving eye discomfort is exceptionally high, on the order of 0.001%. In such situations, an alternative preferred description of an effective unit dose is 0.01 mg/ml or 10 μg/ml, which is equivalent to 0.001% weight percent.

Series [3] deals with tongue of human volunteers. Kind of series: Cooling sensations when applied to the tongue of human volunteers. As to conditions: for Duration of Action: duration of the cooling action on the tongue; for Relative Potency: reciprocal of threshold, normalized to unity for analogs with 1.25 μg/ml; for Threshold: threshold for producing cooling sensations on the tongue of human volunteers. The format is in vivo. Here is the method:
as §2

Series [4] relates to medial canthus of the eyelids. The series can be described thus: Sensory quality of the solution on the medial canthus of the eyelids / eye surface. The format is in vivo, human. As to conditions: for Sensory Quality: solution applied on the medial canthus of the eyelids. The text has this: [table] In selecting a particular analog, it is desirable to have one that has a long duration of action (several hours) and minimal stinging and burning sensations. These parameters are not predicted by the cooling effect of these substances on the human tongue, but must be determined by experiment. […] Thus, the hexyl analog is the preferred therapeutic of the two. The other particularly preferred analogs that have the desired qualities of long duration of action and absence of stinging and burning effects are identified with an asterisk in Table 1.

The subject of series [5] is closed eyes of volunteers. Kind of series: Eye drops applied to medial canthus of closed eyes, kept closed about 1 min. The format is in vivo, human. As to conditions: 0.2% (2.0 mg/ml) solution, 2-3 drops, closed eyes, three volunteers. As for the experimental part: For trialkyl phosphine oxide eye drop solutions of this invention, I have discovered an indirect method of application as follows. The eye dropper is aimed at the medial canthus (nasal corner) of the eye, the eye is then closed, the dispenser is squeezed to emit the eye drops, and the eye kept closed for about 1 min. This method of application can substantially avoid stinging and burning sensations. Apparently, the adaptation period of about 1 min allows the sensory processes to develop tolerance to the initial stinging and burning stimuli. For example, if a 0.4 mg/ml solution of disec-butyl, n-hexyl-phosphine oxide [synonym, 1-(Di-sec-butyl-phosphinoyl)-hexane] in isotonic-buffered saline is dropped on the open eye, it causes stinging and burning for about 1 min. However, applied onto the corners of the eye, with the eyes closed for 1 min, these stinging and burning sensations are avoided. The medial canthus is preferred to the lateral canthus because the geometry of the orbit permits a longer residence time for the eye drop applied to the medial corner. Drops applied to the lateral canthus are less precisely located and rapidly dribble off the zygoma (cheekbone). A user can be instructed in this indirect method by including the instructions on packaging labels and/or inserts associated with the doses.
The solution, as in Example 1, was then used by another three subjects with the instruction to apply the droplets to the nasal corner of the eye (medial canthus), without touching the tip of the dispenser to the eyelid surface, to let the solution seep into the eyelids and eye surface but to keep eyes closed for at least one minute. The subjects reported slight sensations of stinging when the eyes were opened, effects that lasted for less than 1 minute, followed by sensations of coolness and comfort lasting at least two hours. The experiment was then repeated, but with a higher concentration of 0.2% of disec-butyl-n-hexyl-phosphine oxide.
as §1

Marks after values point to notes of the source that are not given here.

Turning to `O=C(CO)[C@@H](O)[C@H](O)[C@H](O)CO` [fructose], the “effect of adjunct on initial stinging sensations” value in series [1] (added to 0.2% disec-butyl-n-heptyl-phosphine oxide solution, 1.5% (0.5% for carboxymethylcellulose)) is recorded as “reduce the initial stinging sensations”. Also, the “effect of adjunct on stinging and burning sensations of several trialkyl phosphine oxide solutions” value in series [2] (1 to 2% sucrose, other carbohydrates, 0.5% carboxymethylcellulose, sucralose at equivalent sweetening concentrations) is on record as “substantially reduced”.
Turning to `CCCP(=O)(CCC)CCC(C)C` [i-C5H11 / n-C3H7 / n-C3H7], in the series with eye disorders, the “Eye Therapy” value is greater than 1500 µg/mL. Also, in series [3], the “Duration of Action” value was 5 min, the “Relative Potency” value is less than 0.005 and the Threshold is greater than 250 µg/mL. Further, in series [4], the “Sensory Quality” value is reported as “cool/sting”.
For the molecule `O[C@H]1[C@H](O)[C@@H](O)[C@H](O)[C@@H](O)[C@H]1O` [inositol], the “effect of adjunct on initial stinging sensations” value in series [1] (in vivo) is recorded as “reduce the initial stinging sensations”. Besides, in series [2] (in vivo), the “effect of adjunct on stinging and burning sensations of several trialkyl phosphine oxide solutions” value is recorded as “substantially reduced”.
With `CCC(C)P(=O)(CCC(C)C)CCC(C)C` (stereo not drawn) [iso-C5H11 / iso-C5H11 / sec-C4H9, di-isopentyl-sec-butyl phosphine oxide], the “Eye Therapy” value in the series on eye disorders was greater than 150 µg/mL. Besides, in series [3], the “Duration of Action” value stood at 5 min, the “Relative Potency” value was found to be 0.06 and the Threshold worked out at 20 µg/mL. Besides, the “Sensory Quality” value in series [4] is “cool/sting”.
As for `OC[C@H]1O[C@@H](O[C@H]2[C@H](O)[C@@H](O)C(O)O[C@@H]2CO)[C@H](O)[C@@H](O)[C@H]1O` (stereo partly drawn) [lactose], the “effect of adjunct on initial stinging sensations” value in series [1] (in vivo) was “reduce the initial stinging sensations”.
Take `CCCCCP(=O)(CC)CCCCC` [n-C5H11 / n-C5H11 / n-C2H5]: in the series on eye disorders, the “Eye Therapy” value is greater than 1000 µg/mL. Further, in series [3], the “Duration of Action” value is recorded as 5 min, the “Relative Potency” value is on record as less than 0.008 and the Threshold is greater than 150 µg/mL. Besides, the “Sensory Quality” value in series [4] is given as “cool/sting”.
`CCCCCCP(=O)(C(C)C)C(C)CC` (stereo not drawn) [n-C6H13 / iso-C3H7 / sec-C4H0]: the “Eye Therapy” value with eye disorders is 15 µg/mL. In series [3], the “Duration of Action” value is 45 min, the “Relative Potency” value is given as 2.5 and the Threshold turned out to be 0.5 µg/mL. For the same molecule, in series [4], the “Sensory Quality” value was “cool/sting”.
In the same order, the values of `CCCCCCP(=O)(CCC(C)C)C(C)C` (stereo not drawn) [n-C6H13 / iso-C5H11 / iso-C3H7] are 25* μg/ml, 5 min, 1, 1.25 µg/mL and “cool only”.
As for `CCCCCCP(=O)(CC)CCCCCC` [n-C6H13 / n-C6H13 / n-C2H5], the “Eye Therapy” value in the series on eye disorders was greater than 150 µg/mL. In series [3], the “Duration of Action” value is 5 min, the “Relative Potency” value came out at 0.06 and the Threshold was 20 µg/mL. Besides, the “Sensory Quality” value in series [4] is given as “cool/sting”.
In the case of `CCCCCCP(=O)(CCC)C(C)(C)C` (stereo not drawn) [n-C6H13 / tert-C4H9 / n-C3H7], the “Eye Therapy” value in the series with eye disorders is on record as 30* μg/ml. In series [3], the “Duration of Action” value is recorded as 7.5 min, the “Relative Potency” value worked out at 0.36 and the Threshold was 3.5 µg/mL. In addition, in series [4], the “Sensory Quality” value is given as “cool only”.
In the same order, the values of `CCCCCCP(=O)(CCCC)C(C)(C)C` (stereo not drawn) [n-C6H13 / tert-C4H9 / n-C4H9] are 25* μg/ml, 5 min, 0.8, 1.5 µg/mL and “cool only”.
As for `CCCCCCCP(=O)(C(C)C)C(C)CC` (stereo not drawn) [n-C7H15 / iso-C3H7 / sec-C4H9], the “Eye Therapy” value with eye disorders is 10* μg/ml. Moreover, in series [3], the “Duration of Action” value is 18 min, the “Relative Potency” value amounted to 10 and the Threshold is 0.1 µg/mL. In addition, the “Sensory Quality” value in series [4] is given as “cool only”.
In the case of `CCCCCCCP(=O)(CCC(C)C)C(C)C` (stereo not drawn) [n-C7H15 / iso-C5H11 / iso-C3H7], the “Eye Therapy” value with eye disorders is recorded as 20* μg/ml. Besides, in series [3], the “Duration of Action” value was 5 min, the “Relative Potency” value is reported as 1 and the Threshold amounted to 1.25 µg/mL. In series [4], the “Sensory Quality” value is listed as “cool/oily”.
In the same order, the values of `CCCCCCCP(=O)(CCCCCCC)C(C)(C)C` [n-C7H15 / n-C7H15 / tert-C4H9] are greater than 150 µg/mL, 10 min, 0.06, 20 µg/mL and “cool/sting”.
Consider `CCCCCCCP(=O)(C(C)CC)C(C)CC` (stereo not drawn) [n-C7H15 / sec-C4H9 / sec-C4H9, disec-butyl-n-heptyl-phosphine oxide], for which, in the series with eye disorders, the “Eye Therapy” value was 15 µg/mL. Also, in series [5], the “duration of stinging and burning sensations on the eye surface” value is reported as “about 2 min”. Moreover, in series [3], the “Duration of Action” value came out at 10 min, the “Relative Potency” value was found to be 0.8 and the Threshold came out at 1.5 µg/mL. In series [3] (hexyl vs heptyl analog), the “potency on the human tongue (comparison of the two analogs)” value was “about equipotent”. Moreover, in series [4] (eye surface), the “activity in producing stinging and burning sensations relative to hexyl analog” value was “three times more active”; the “duration of action on the eye surface relative to hexyl analog” value was “half the duration of action”. Further, the “Sensory Quality” value in series [4] is reported as “cool/sting”.
`CCCCCCCCP(=O)(C(C)C)C(C)CC` (stereo not drawn) [n-C8H17 / iso-C3H7 / sec-C4H9, isopropyl, sec-butyl, n-octyl-phosphine oxide]: the “Eye Therapy” value with eye disorders is recorded as 10* μg/ml. In addition, the “potency in relieving eye discomfort” value in the series with eye disorders (weight percent, equivalent to 10 μg/ml) is on record as roughly 0.001%. In series [3], the “Duration of Action” value came out at 18 min, the “Relative Potency” value was found to be 10 and the Threshold was determined as 0.1 µg/mL. In addition, the “Sensory Quality” value in series [4] was “cool only”.
On to `CCCCCCCCP(=O)(CCCCCC)CCCCCC` [n-C8H17 / n-C6H13 / n-C6H13], for which the “Eye Therapy” value in the series with eye disorders was greater than 1500 µg/mL. For the same molecule, in series [3], the “Duration of Action” value is 10 min, the “Relative Potency” value is listed as less than 0.005 and the Threshold is greater than 250 µg/mL. The “Sensory Quality” value in series [4] was “cool/sting”.
As to `CCCCCCCCP(=O)(C(C)CC)C(C)CC` (stereo not drawn) [n-C8H17 / sec-C4H9 / sec-C4H9], the “Eye Therapy” value in the series with eye disorders was 30 µg/mL. In addition, in series [3], the “Duration of Action” value came to 10 min, the “Relative Potency” value came out at 2.5 and the Threshold came to 0.5 µg/mL. Moreover, the “Sensory Quality” value in series [4] is listed as “cool/sting”.
`CCCCCCCCCP(=O)(CC(C)C)CC(C)C` [n-C9H19 / iso-C4H9 / iso-C4H9]: in the series with eye disorders, the “Eye Therapy” value was greater than 250 µg/mL. Also, in series [3], the “Duration of Action” value is 15 min, the “Relative Potency” value was 0.025 and the Threshold turned out to be 50 µg/mL. Moreover, the “Sensory Quality” value in series [4] is reported as “cool/sting”.
As for `CCCCCCCCCCP(=O)(CCC(C)C)CCC(C)C` [n-C10H21 / iso-C5H11 / iso-C5H11], the “Eye Therapy” value in the series with eye disorders was greater than 1500 µg/mL. Besides, in series [3], the “Duration of Action” value is 10 min, the “Relative Potency” value was less than 0.005 and the Threshold is greater than 250 µg/mL. In addition, in series [4], the “Sensory Quality” value is recorded as “cool/sting”.
Consider `OC[C@H]1O[C@H](O[C@]2(CCl)O[C@H](CCl)[C@@H](O)[C@@H]2O)[C@H](O)[C@@H](O)[C@H]1Cl` [sucralose, reference compound], for which the “effect of adjunct on stinging and burning sensations of several trialkyl phosphine oxide solutions” value in series [2] (in vivo) is reported as “not active”.

(Values after patent publication US20050059639A1, “Ophthalmic compositions and method for treating eye discomfort and pain” (priority 2003, published 2005).)
